Laboratory results from US20230271959A1, “HETEROCYCLIC COMPOUND AS BCL-2 INHIBITOR” (Beijing Innocare Pharma Tech Co., Ltd., priority 2020, published 2023).

What was measured:
[1] = target: T1, human recombinant Bcl-2 protein (Homo sapiens, UniProt P10415); experiment: Fluorescence polarization test for inhibition of BCL-2 binding to FITC-BIM; settings: 5 nM BCL-2, 5 nM FITC-BIM, read-out: FP BCL-2 IC50
T1 construct: purchased Beijing Yigiao Shenzhou Biotechnology Co., Ltd. 10195-HOSE
Protocol: Fluorescence polarization assay was used to evaluate the effect of the compounds of the present invention on the biological activity of BCL-2.
The effects of the compounds on the biological activity of BCL-2 were evaluated by determining the effects of the compounds on the binding activity of BCL-2 to leukemia pro-apoptotic protein (BIM) using an affinity assay method based on the principle of fluorescence polarization. The reaction buffer comprises the following components: PBS (pH 7.4, 3 mM Na2HPO4, 155 mM NaCl, 1 mM KH2PO4), 1 mM DTT; human recombinant Bcl-2 protein (Item No. 10195-HOSE) (purchased from Beijing Yigiao Shenzhou Biotechnology Co., Ltd.) was diluted to 5 nM with the reaction buffer; FITC-labeled BIM polypeptide (purchased from Nanjing GenScript Biotechnology Co., Ltd.) was diluted to 5 nM with the reaction buffer.
The compounds were dissolved in 100% DMSO and diluted to 0.1, 1, 10 μM, followed by 4-fold serial dilutions with DMSO to a minimum concentration of 0.0061, 0.061, 0.61 nM, each concentration point was further diluted 50-fold with the reaction buffer.
3 μL of solution containing the compound and 12 μL of solution containing BCL-2 were added to the black 384-well assay plate, mixed well, and incubated at room temperature for 15 minutes. Subsequently, 15 μL of FITC-BIM solution was added, and the reaction mixture was incubated at room temperature for 30 minutes in dark place, and then the fluorescence polarization was detected immediately on an Envision multi-mode reader (Perkin Elmer), with 480 nm as the excitation wavelength and 535 nm as the emission wavelength. In this experiment, the group without BCL-2 protein was used as a negative control (100% inhibition), and the group with BCL-2 protein but without the compound was used as a positive control (0% inhibition). The inhibition percentage of the compound to the affinity of BCL-2 can be calculated using the following equation: […]
(§1) The IC50 of the compound was calculated from 8 concentration points using XLfit (ID Business Solutions Ltd., UK) software by the following equation:
(§2) Y=Bottom+(Top−Bottom)/(1+10^((log IC50−X)*slope factor))
(§3) where Y is the inhibition percentage, X is the logarithm of the concentration of the compound to be tested, Bottom is the maximum inhibition percentage, Top is the minimum inhibition percentage, and slope factor is the slope coefficient of the curve.

[2] = target: T2, human recombinant Bcl-XL protein (Homo sapiens, UniProt Q07817); experiment: Fluorescence polarization test for inhibition of BCL-XL binding to FITC-BIM; settings: 10 nM BCL-XL, 10 nM FITC-BIM, read-out: FP BCL-XL IC50
T2 construct: purchased Beijing Yiqiao Shenzhou Biotechnology Co., Ltd. 10455-H0SE
T2 sequence (Q07817 whole entry): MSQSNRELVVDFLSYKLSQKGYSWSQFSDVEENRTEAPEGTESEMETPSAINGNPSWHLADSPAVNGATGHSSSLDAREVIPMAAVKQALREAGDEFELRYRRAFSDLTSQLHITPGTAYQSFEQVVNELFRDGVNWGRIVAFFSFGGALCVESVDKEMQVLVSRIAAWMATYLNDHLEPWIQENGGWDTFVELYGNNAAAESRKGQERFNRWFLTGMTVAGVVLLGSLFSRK
Protocol: Fluorescence polarization assay was used to evaluate the effect of the compounds of the present invention on the biological activity of BCL-XL.
The effects of the compounds on the biological activity of BCL-XL were evaluated by detecting the effects of the compounds on the binding activity of BCL-XL to BIM using an affinity assay method based on the principle of fluorescence polarization. The reaction buffer contains the following components: PBS (pH 7.4, 3 mM Na2HPO4, 155 mM NaCl, 1 mM KH2PO4), 1 mM DTT; human recombinant Bcl-XL protein (Item No. 10455-H0SE) (purchased from Beijing Yiqiao Shenzhou Biotechnology Co., Ltd.) was diluted to 10 nM with reaction buffer; FITC-labeled BIM polypeptide (purchased from Nanjing GenScript Biotechnology Co., Ltd) was diluted to 10 nM with reaction buffer.
The compounds were dissolved in 100% DMSO and diluted to 1 μM, followed by 4-fold serial dilutions in DMSO to a minimum concentration of 0.061 nM, each concentration point was further diluted 50-fold with reaction buffer.
3 μL of solution containing the compound and 12 μL of solution containing BCL-XL were added to the black 384-well assay plate, mixed well, and incubated at room temperature for 15 minutes. Subsequently, 15 μL of FITC-BIM solution was added, and the reaction mixture was incubated at room temperature for 30 minutes in the dark place, and then the fluorescence polarization was detected immediately on an Envision multi-plate reader (Perkin Elmer), with 480 nm as the excitation wavelength and 535 nm as the emission wavelength. In this experiment, the group without BCL-XL protein was used as a negative control (100% inhibition), and the group with BCL-XL protein but without the compound was added as a positive control (0% inhibition). The inhibition percentage of the compound to the affinity of BCL-XL can be calculated using the following equation: […]
as §1, §2, §3

[3] = test system: RS4;11 cells (acute lymphoblastic leukemia cells); experiment: RS4;11 cell proliferation, CellTilter-Glo luminescence cell viability assay; type: cell-based; settings: Homo sapiens, RS4-11; CTG readout after 48 hours
Protocol: The effects of the compounds of the present invention on the proliferation of RS4;11 cells were evaluated using a luminescence cell viability assay.
A CellTilter-Glo (CTG) Assay Kit is used to detect ATP, a key indicator of the metabolism of living cells, through a unique, highly sensitive and stable luciferase. The luminescent signal generated in the assay is proportional to the number of the viable cells in the medium, therefore the cell proliferation of RS4;11 can be determined.
CellTilter-Glo reagent (Promega, G7572) is composed of CellTilter-Glo lyophilized powder and CellTilter-Glo buffer, and the lyophilized powder can be dissolved in the buffer for use.
RS4;11 cells (ATCC, CRL-1873) were cultured in RPMI1640 complete medium (Thermofisher, 72400-047) containing 10% FBS (GBICO, 10099-141) and 100 units/ml penicillin-streptomycin solution (Thermofisher, 15140122)), when the cells covered 80-90% in the culture vessel, they were digested and dispersed with 0.25% trypsin (containing EDTA) (Thermofisher, 25200056) and then planted in a white 384-well plate (Thermofisher, 164610), and then the 384-well plate was incubated overnight in a 37° C., 5% CO2 incubator. Compounds were dissolved in 100% DMSO and diluted to […], followed by 4-fold serial dilutions with DMSO to a minimum concentration of 0.061 μM, and each concentration point was further diluted 50-fold with FBS-free RPMI1640 medium. If the IC50 of the compound is very low, the initial concentration of the compound can be reduced. After overnight, 3 μL of the compound diluted in the medium was added to each well, and the mixture was gently centrifuged to mix. The group without cells was used as a negative control (100% inhibition), and the group with 0.2% DMSO was used as a positive control (0% inhibition). The 384-well plate was placed in a 37° C., 5% CO2 incubator for further cultivation. After 48 hours, the plate was taken out and equilibrated to room temperature. 15 μl of CTG reagent was added to each well, the plate was shaken gently for 3 minutes to make sure that the cell lysis was carried out thoroughly, then the plate was kept for 10 minutes to stabilize the luminescence signal, then the luminescence signal was read by EnVision (Perkin Elmer).
The inhibition percentage of the compounds to RS4;11 cell proliferation can be calculated using the following equation:
Inhibition Percentage=100−100*(signal compound-signal negative control)/(signal positive control-signal negative control)
as §1
Y=Bottom+(Top−Bottom)/(1+10^((Log IC50−X)*slope factor))
wherein, Y is the inhibition percentage, Bottom is the bottom plateau of the curve (the bottom plateau value of the S-shaped curve), Top is the top plateau of the curve (the top plateau value of the S-shaped curve), and X is the logarithm of the concentration of the compound to be tested.

T1 sequence (P10415 whole entry): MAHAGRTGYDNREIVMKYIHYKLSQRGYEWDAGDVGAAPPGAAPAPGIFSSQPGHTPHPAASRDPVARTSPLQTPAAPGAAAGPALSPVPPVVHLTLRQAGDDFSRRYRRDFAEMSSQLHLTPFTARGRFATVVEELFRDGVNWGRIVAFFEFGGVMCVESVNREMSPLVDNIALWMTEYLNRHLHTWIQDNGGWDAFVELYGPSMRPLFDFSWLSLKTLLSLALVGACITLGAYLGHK

IC50 [1]	IC50 [2]	IC50 [3]	SMILES
2.35 nM	> 1000 nM	3.8 nM	C[C@H]1CCC(CN2CCN(c3ccc(C(=O)NS(=O)(=O)c4cc(F)c(NCC5CCOCC5)c([N+](=O)[O-])c4)c(Oc4cnc5[nH]ccc5c4)c3)C[C@H]2C)=C(c2ccc(Cl)cc2)C1 [Example 14]
3.16 nM	> 1000 nM	16 nM	C[C@@H]1CN(c2ccc(C(=O)NS(=O)(=O)c3cc(F)c(NCC4CCOCC4)c([N+](=O)[O-])c3)c(Oc3cnc4[nH]ccc4c3)c2)CCN1CC1=C(c2ccc(Cl)cc2)CC(C)(C)C2(CC2)C1 [Example 33]
1.97 nM	> 1000 nM	8.8 nM	C[C@@H]1CCC(CN2CCN(c3ccc(C(=O)NS(=O)(=O)c4cc(F)c(NCC5CCOCC5)c([N+](=O)[O-])c4)c(Oc4cnc5[nH]ccc5c4)c3)C[C@H]2C)=C(c2ccc(Cl)cc2)C1 [Example 21, 2-((1H-pyrrolo[2,3-b]pyridin-5-yl)oxy)-4-((R)-4-(((R)-4′-chloro-5-methyl-3,4,5,6-tetrahydro-[1,1′-biphenyl]-2-yl)methyl)-3-methylpiperazin-1-yl)-N-((3-fluoro-5-nitro-4-(((tetrahydro-2H-pyran-4-yl)methyl)amino)phenyl)sulfonyl)benzamide]

Continued, molecule first:

SMILES	IC50 [1]	IC50 [2]	IC50 [3]
C[C@@H]1CCC(CN2CCN(c3ccc(C(=O)NS(=O)(=O)c4ccc(NCC5CCOCC5)c([N+](=O)[O-])c4)c(Oc4cnc5[nH]ccc5c4)c3)[C@H](C)C2)=C(c2ccc(Cl)cc2)C1 [Example 23, 2-((1H-pyrrolo[2,3-b]pyridin-5-yl)oxy)-4-((R)-4-(((R)-4′-chloro-5-methyl-3,4,5,6-tetrahydro-[1,1′-biphenyl]-2-yl)methyl)-2-methylpiperazin-1-yl)-N-((3-nitro-4-(((tetrahydro-2H-pyran-4-yl)methyl)amino)phenyl)sulfonyl)benzamide]	9.37 nM	> 1000 nM	51 nM
C[C@@H]1CN(c2ccc(C(=O)NS(=O)(=O)c3cc(F)c(NCC4CCN(C5COC5)CC4)c([N+](=O)[O-])c3)c(Oc3cnc4[nH]ccc4c3)c2)CCN1CC1=C(c2ccc(Cl)cc2)CC(C)(C)CC1 [Example 4, (R)-2-((1H-pyrrolo[2,3-b]pyridin-5-yl)oxy)-4-(4-((4′-chloro-5,5-dimethyl-3,4,5,6-tetrahydro-[1,1′-biphenyl]-2-yl)methyl)-3-methylpiperazin-1-yl)-N-((3-fluoro-5-nitro-4-(((1-(3-oxetanyl)piperidin-4-yl)methyl)amino)phenyl)sulfonyl) benzamide]	2.29 nM	743 nM	5.8 nM
C[C@@H]1CN(c2ccc(C(=O)NS(=O)(=O)c3cc(F)c(NC[C@H]4COCCO4)c([N+](=O)[O-])c3)c(Oc3cnc4[nH]ccc4c3)c2)CCN1CC1=C(c2ccc(Cl)cc2)CC(C)(C)C(C)(C)C1 [Example 41, N-((4-((((S)-1,4-dioxan-2-yl)methyl)amino)-3-fluoro-5-nitrophenyl)sulfonyl)-2-((1H-pyrrolo[2,3-b]pyridin-5-yl)oxy)-4-((R)-4-((4′-chloro-4,4,5,5-tetramethyl-3,4,5,6-tetrahydro-[1,1′-biphenyl]-2-yl)methyl)-3-methylpiperazin-1-yl)benzamide]	1.28 nM	> 1000 nM	8 nM
CC1(C)CCC(CN2CCN(c3ccc(C(=O)NS(=O)(=O)c4ccc(NCC5CCOCC5)c([N+](=O)[O-])c4)c(Oc4cnc5[nH]ccc5c4)c3)[C@@H]3CCCC[C@H]32)=C(c2ccc(Cl)cc2)C1 [Example 57]	> 500 nM	> 1000 nM	> 1000 nM
C[C@@H]1CN(c2ccc(C(=O)NS(=O)(=O)c3ccc(NC[C@H]4COCCO4)c([N+](=O)[O-])c3)c(Oc3cnc4[nH]ccc4c3)c2)CCN1CC1=C(c2ccc(Cl)cc2)CC(C)(C)CC1 [Example 5, N-((4-((((S)-1,4-dioxan-2-yl)methyl)amino)-3-nitrophenyl)sulfonyl)-2-((1H-pyrrolo[2,3-b]pyridin-5-yl)oxy)-4-((R)-4-((4′-chloro-5,5-dimethyl-3,4,5,6-tetrahydro[1,1′-biphenyl]-2-yl)methyl)-3-methylpiperazin-1-yl) benzamide]	1.54 nM	> 1000 nM	2.75 nM
C[C@@H]1CN(c2ccc(C(=O)NS(=O)(=O)c3cc(F)c(NC[C@H]4COCCO4)c([N+](=O)[O-])c3)c(Oc3cnc4[nH]ccc4c3)c2)CCN1CC1=C(c2ccc(Cl)cc2)CCC2(CC2)C1 [Example 35, N-((4-((((S)-1,4-dioxan-2-yl)methyl)amino)-3-fluoro-5-nitrophenyl)sulfonyl)-2-((1H-pyrrolo[2,3-b]pyridin-5-yl)oxy)-4-((R)-4-((6-(4-chlorophenyl)spiro[2.5]oct-5-en-5-yl)methyl)-3-methylpiperazin-1-yl)benzamide]	2.96 nM	> 1000 nM	17 nM
